From US7056917B2, “Drug efflux pump inhibitor” (Daiichi Pharmaceutical Co., Ltd., priority 2001, dated 2006)

Experiments:
Assay type in all cases: cell-based
[1] = system: Pseudomonas aeruginosa PAM 1723 (a strain highly expressing MexAB-OprM drug efflux pump); test: Combined use of drug efflux pump inhibitor and disinfectant, broth dilution method; settings: for enhancement of activity of the disinfectant on PAM 1723: combined use with 10 μg/ml of the compound of Example 26
Protocol: Effect of Combined Use of Drug Efflux Pump Inhibitor and Disinfectant
Effects of a combined use of a drug efflux pump inhibitor and alkyldiaminoethylglycine hydrochloride (AEG, trade name: Tego 51) or chlorhexidine gluconate (CHG, trade name: Hibiten) on Pseudomonas aeruginosa PAM 1723 (a strain highly expressing MexAB-OprM drug efflux pump) was determined by the broth dilution method. The compound of Example 26 was added at a final concentration of 10 μg/ml to Mueller-Hinton broth (MHB) containing a disinfectant at a concentration after 2-fold serial dilution. The amount of the test bacteria inoculated was 1×10^6 CFU/ml, and after standing cultivation at 37° C. for 18 hours, the culture was observed by visual inspection. The minimum concentration that gave no turbidity as in the control of MHB was determined as MIC.

[2] = system: Pseudomonas aeruginosa PAM 1723 strain highly expressing the drug efflux pump; test: Effect of combined use with antimicrobial agent (levofloxacin, aztreonam) on multidrug resistant Pseudomonas aeruginosa; settings: 18 hours, MHB; for MPC8 AZT: minimum concentration of test compound required to enhance antibacterial activity of aztreonam at 1/8 or less of MIC; for MPC4 LVFX: minimum concentration of test compound required to enhance antibacterial activity of levofloxacin applied at 1/4 of MIC; for MPC8 LVFX: minimum concentration of test compound required to enhance antibacterial activity of levofloxacin applied at 1/8 or less of MIC
From the text: Effect of Combined Use with Antimicrobial Agent on Multidrug Resistant Pseudomonas aeruginosa
As multidrug resistant Pseudomonas aeruginosa, Pseudomonas aeruginosa PAM 1723 strain highly expressing the drug efflux pump was used. As antimicrobial drugs for the combinational uses, levofloxacin (LVFX) as a quinolone antibacterial agent and aztreonam (AZT) as a monobactam antibiotic were used. Each of the compounds shown in Table 1 with Example No., which falls within the compounds of the present invention, was subjected to the measurement of its minimum concentration (μg/ml) that was required to enhance the antibacterial activity of levofloxacin when the test compound was used in combination with levofloxacin applied at a concentration of 1/4, or 1/8 or less of the minimum inhibitory concentration against the PAM 1723 strain. […] Effects as combinational uses for 18 hours was indicated for each of the drugs. Effects were determined by visually observing the turbidity of the medium. The Müller-Hinton broth (MHB, Difco) was used as a medium, and the inoculum of the bacteria was 1×10^6 CFU/ml.

[3] = system: Pseudomonas aeruginosa wild strain PAM 1020; test: Combined use of a pump inhibitor, levofloxacin (LVFX) and meropenem (MEPM) evaluated by the three-dimensional checker board method; settings: for FIC index: PAM 1020
Protocol: (1) Effect of Combined Used of a Pump Inhibitor, Levofloxacin (LVFX) and Meropenem (MEPM) Evaluated by the Three-Dimensional Checker Board Method
The effect was measured by the three-dimensional checker board method by using Pseudomonas aeruginosa wild strain PAM 1020. The test strain was inoculated into Mueller-Hinton broth containing LVFX, MEPM (at 11 concentration levels and 0 μg/ml) and the compound of Example 26 (40-0.625 μg/ml and 0 μg/ml) at a concentration of 10^6 CFU/ml and cultured at 37° C. for 18 hours. Then, MIC was measured for sole and combined use. Measurement was performed by the checker board method and FIC index was calculated according to the following equation. FIC index=a/a0+b/b0+c/c0 wherein a0: MIC for Agent A used alone, a: MIC for Agent A when Agents A, B and C are used in combination, b0: MIC for Agent B used alone, b: MIC for Agent B when Agents A, B and C are used in combination, c0: MIC for Agent C used alone, c: MIC for Agent C when Agents A, B and C are used in combination.
It was determined that there was synergistic effect when FIC index was 0.75 or less, additive effect or weak synergistic effect when the index was more than 0.75 but not more than 1.125, no effect of combined use when the index was more than 1.125 but not more than 3.0, and antagonistic effect when the index was more than 3.0.

[4] = combined with compound of Example 26 at 10 μg/ml, PAM 1723, 37° C. 18 hours
[5] = compound of Example 26 at 10 μg/ml, PAM 1723
[6] = disinfectant alone, PAM 1723, 37° C. 18 hours

With `N=C(NCCCCCCNC(=N)NC(=N)Nc1ccc(Cl)cc1)NC(=N)Nc1ccc(Cl)cc1.O=C(O)[C@H](O)[C@@H](O)[C@H](O)[C@H](O)CO.O=C(O)[C@H](O)[C@@H](O)[C@H](O)[C@H](O)CO` [CHG, chlorhexidine gluconate] the “enhancement of activity of the disinfectant on PAM 1723” value [1] was “four times”, the “MIC CHG Combined use” value [1, 4] was 4 µg/mL and the “CHG Ratio of MIC values for single use of the disinfectant and combined use with the compound of Example 26” value [1, 5] was 4. For the same compound, the “MIC CHG Single use” value [1, 6] was 16 µg/mL.

`CC(C)c1csc(CCc2ccn3c(=O)c(/C=C/C(=O)O)c(N4CCCC(O)C4)nc3c2)n1` (stereo not drawn) [Example 26] was tested, and the “MPC8 AZT” value [2] was 1 µg/mL, the “MPC4 LVFX” value [2] was 0.25 µg/mL and the “MPC8 LVFX” value [2] was 1 µg/mL. For the same compound, the FIC index ([3]; LVFX + MEPM 0.016 μg/ml + compound of Example 26 0.625 μg/ml) was 1.039, the FIC index ([3]; LVFX + MEPM 0.016 μg/ml + compound of Example 26 1.25 μg/ml) was 1.047 and the FIC index ([3]; LVFX + MEPM 0.016 μg/ml + compound of Example 26 2.5 μg/ml) was 1.063. For the same compound, the FIC index ([3]; LVFX + MEPM 0.016 μg/ml + compound of Example 26 5 μg/ml) was 0.594, the FIC index ([3]; LVFX + MEPM 0.016 μg/ml + compound of Example 26 10 μg/ml) was 0.656 and the FIC index ([3]; LVFX + MEPM 0.016 μg/ml + compound of Example 26 20 μg/ml) was 0.781. The FIC index ([3]; LVFX + MEPM 0.016 μg/ml + compound of Example 26 40 μg/ml) was 1.031, the FIC index ([3]; LVFX + MEPM 0.0313 μg/ml + compound of Example 26 0.625 μg/ml) was 1.07 and the FIC index ([3]; LVFX + MEPM 0.0313 μg/ml + compound of Example 26 1.25 μg/ml) was 1.078. It also gave an FIC index ([3]; LVFX + MEPM 0.0313 μg/ml + compound of Example 26 2.5 μg/ml) of 0.5938, an FIC index ([3]; LVFX + MEPM 0.0313 μg/ml + compound of Example 26 5 μg/ml) of 0.625 and an FIC index ([3]; LVFX + MEPM 0.0313 μg/ml + compound of Example 26 10 μg/ml) of 0.6875. The FIC index ([3]; LVFX + MEPM 0.0313 μg/ml + compound of Example 26 20 μg/ml) was 0.8125, the FIC index ([3]; LVFX + MEPM 0.0313 μg/ml + compound of Example 26 40 μg/ml) was 1.0625 and the FIC index ([3]; LVFX + MEPM 0.0625 μg/ml + compound of Example 26 0.625 μg/ml) was 1.133. It also gave an FIC index ([3]; LVFX + MEPM 0.0625 μg/ml + compound of Example 26 1.25 μg/ml) of 0.641, an FIC index ([3]; LVFX + MEPM 0.0625 μg/ml + compound of Example 26 2.5 μg/ml) of 0.656 and an FIC index ([3]; LVFX + MEPM 0.0625 μg/ml + compound of Example 26 5 μg/ml) of 0.438. For the same compound, the FIC index ([3]; LVFX + MEPM 0.0625 μg/ml + compound of Example 26 10 μg/ml) was 0.500, the FIC index ([3]; LVFX + MEPM 0.0625 μg/ml + compound of Example 26 20 μg/ml) was 0.500 and the FIC index ([3]; LVFX + MEPM 0.0625 μg/ml + compound of Example 26 40 μg/ml) was 0.750. For the same compound, the FIC index ([3]; LVFX + MEPM 0.125 μg/ml + compound of Example 26 0.625 μg/ml) was 0.781, the FIC index ([3]; LVFX + MEPM 0.125 μg/ml + compound of Example 26 1.25 μg/ml) was 0.563 and the FIC index ([3]; LVFX + MEPM 0.125 μg/ml + compound of Example 26 2.5 μg/ml) was 0.500. The FIC index ([3]; LVFX + MEPM 0.125 μg/ml + compound of Example 26 5 μg/ml) was 0.563, the FIC index ([3]; LVFX + MEPM 0.125 μg/ml + compound of Example 26 10 μg/ml) was 0.766 and the FIC index ([3]; LVFX + MEPM 0.25 μg/ml + compound of Example 26 0.625 μg/ml) was 1.063. The MIC ([3]; Pseudomonas aeruginosa, agent used alone, PAM 1020 strain) was ≥ 80 µg/mL.

With `CC(C)c1csc(/C=C/c2ccn3c(=O)c(/C=C/c4nnn[nH]4)c(N4CCCC(O)C4)nc3c2)n1` (stereo not drawn) [Example 104, 2-(3-Hydroxypiperidino)-8-[(E)-2-(4-isopropyl-1,3-thiazol-2-yl)-1-ethenyl]-3-[(E)-2-(1H-1,2,3,4-tetrazol-5-yl)-1-ethenyl]-4H-pyrido[1,2-a]pyrimidin-4-one] the “MPC8 AZT” value [2] was 0.5 µg/mL, the “MPC4 LVFX” value [2] was 0.24 µg/mL and the “MPC8 LVFX” value [2] was 1 µg/mL.

In the case of `CC(C)c1csc(/C=C/c2ccn3c(=O)c(/C=C/C(=O)O)c(OCC4CCOC4)nc3c2)n1` (stereo not drawn) [Example 117, (E)-3-{8-[(E)-2-(4-Isopropyl-1,3-thiazol-2-yl)-1-ethenyl]-4-oxo-2-(tetrahydro-3-furanylmethoxy)-4H-pyrido[1,2-a]pyrimidin-3-yl}-2-propenoic acid], the “MPC8 AZT” value [2] is reported as 4 µg/mL, the “MPC4 LVFX” value [2] is reported as 1 µg/mL and the “MPC8 LVFX” value [2] is reported as 4 µg/mL.

`CC(C)c1csc(CCc2ccn3c(=O)c(/C=C/C(=O)O)c(-c4ccncc4)nc3c2)n1` [Example 130] was tested, and the “MPC8 AZT” value [2] was 8 µg/mL, the “MPC4 LVFX” value [2] was 2 µg/mL and the “MPC8 LVFX” value [2] was 8 µg/mL.

For `CC(C)c1csc(CCc2ccn3c(=O)c(/C=C(\F)C(=O)O)c(N4CCOCC4)nc3c2)n1` [Example 135, (Z)-2-Fluoro-3-{8-[2-(4-isopropyl-1,3-thiazol-2-yl)ethyl]-2-morpholino-4-oxo-4H-pyrido[1,2-a]pyrimidin-3-yl}-2-propenoic acid], the “MPC8 AZT” value [2] was 8 µg/mL, the “MPC4 LVFX” value [2] was 4 µg/mL and the “MPC8 LVFX” value [2] was 16 µg/mL.

With `CC(C)c1csc(CCc2ccn3c(=O)c(/C=C4/SC(=O)NC4=O)c(N4CCOCC4)nc3c2)n1` [Example 141, 5-(1-{8-[2-(4-Isopropyl-1,3-thiazol-2-yl)ethyl]-2-morpholino-4-oxo-4H-pyrido[1,2-a]pyrimidin-3-yl}methylidene)-1,3-thiazolidine-2,4-dione] the “MPC8 AZT” value [2] was 2 µg/mL, the “MPC4 LVFX” value [2] was 0.25 µg/mL and the “MPC8 LVFX” value [2] was 16 µg/mL.

For `CC(C)c1csc(CCc2ccn3c(=O)c(/C=C/C(=O)O)c(SCC(N)=O)nc3c2)n1` [Example 152, (E)-3-{2-Aminocarbonylmethylthio-8-[2-(4-isopropyl-1,3-thiazol-2-yl)-ethyl]-4-oxo-4H-pyrido[1,2-a]pyrimidin-3-yl}-2-propenoic acid], the “MPC8 AZT” value [2] was 4 µg/mL, the “MPC4 LVFX” value [2] was 2 µg/mL and the “MPC8 LVFX” value [2] was 8 µg/mL.

With `CCn1cc(-c2nn[nH]n2)c(=O)c2ccc(/C=C/c3nc(C(C)C)cs3)nc21` [Example 155, 1-Ethyl-7-[(E)-2-(4-isopropyl-1,3-thiazol-2-yl)-1-ethenyl]-3-(1H-1,2,3,4-tetrazol-5-yl)-1,4-dihydro[1,8]naphthylidin-4-one] the “MPC8 AZT” value [2] was 2 µg/mL, the “MPC4 LVFX” value [2] was 0.25 µg/mL and the “MPC8 LVFX” value [2] was 2 µg/mL.

“alkyldiaminoethylglycine hydrochloride [AEG]” was tested, and the “enhancement of activity of the disinfectant on PAM 1723” value [1] was “two times”, the “MIC AEG Combined use” value [1, 4] was 32 µg/mL and the “AEG Ratio of MIC values for single use of the disinfectant and combined use with the compound of Example 26” value [1, 5] was 2. For the same compound, the “MIC AEG Single use” value [1, 6] was 64 µg/mL.
